Several values for one entry are separate records, joined by “and”; a condition that tells them apart may be missing. Equal entries are not always repeated.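 Each compound was tested at five concentrations against cells in 96-well plates for 48 hours. GI50 = concentration required for 50% inhibition of growth. TGI marks complete inhibition of growth.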
Tests used:
Test in all cases: NCI-60 cell line screen, 48 h
A498 renal = tested on: A498 renal
HCC-2998 colon = tested on: HCC-2998 colon
KM12 colon = tested on: KM12 colon
MDA-MB-231 breast = tested on: MDA-MB-231 breast
MOLT-4 leukemia = tested on: MOLT-4 leukemia
OVCAR-8 ovarian = tested on: OVCAR-8 ovarian
RPMI-8226 leukemia = tested on: RPMI-8226 leukemia
SF-268 CNS = tested on: SF-268 CNS
SNB-19 CNS = tested on: SNB-19 CNS
UACC-257 melanoma = tested on: UACC-257 melanoma

Row | Compound | GI50 (A498 renal) [µM] | TGI (A498 renal) | GI50 (HCC-2998 colon) [µM] | TGI (HCC-2998 colon) | GI50 (KM12 colon) [µM] | TGI (KM12 colon) [µM] | GI50 (MDA-MB-231 breast) [µM] | TGI (MDA-MB-231 breast) [µM] | GI50 (MOLT-4 leukemia) [µM] | TGI (MOLT-4 leukemia) [µM] | GI50 (OVCAR-8 ovarian) [µM] | TGI (OVCAR-8 ovarian) [µM] | GI50 (RPMI-8226 leukemia) [µM] | TGI (RPMI-8226 leukemia) [µM] | GI50 (SF-268 CNS) [µM] | TGI (SF-268 CNS) [µM] | GI50 (SNB-19 CNS) [µM] | TGI (SNB-19 CNS) [µM] | GI50 (UACC-257 melanoma) [µM] | TGI (UACC-257 melanoma)
1 | COc1cc([C@@H]2c3cc4c(cc3C(O[C@@H]3O[C@@H]5CO[C@@H](c6cccs6)OC5[C@H](O)[C@H]3O)C3COC(=O)[C@@H]32)OCO4)cc(OC)c1O (some centres not stated) | 0.0635 | 0.551 µM | 0.109 | 0.446 µM | 0.118 | 0.796 | 0.267 | 3.58 | < 0.005 | 0.0284 | 0.0856 | 1.09 | 0.0298 | 1.28 | 0.0693 | 1.54 | 0.0278 | 17 | 0.154 | 2.11 µM
2 | O=C(C[C@@H](C(=O)NCc1cccc(C(F)(F)F)c1)N1C(=O)[C@@H](N2C(=O)OC[C@@H]2c2ccccc2)[C@H]1/C=C/c1ccccc1)NC1CCN(Cc2ccccc2)CC1 | 2.19 | 11.9 µM | 6.2 | 21.2 µM | 3.93 | 16.7 | 4.02 | 20 | 1.59 | 6.79 | 3.08 |  | 2.22 | 5.31 | 3.81 | 21.4 | 9.33 | 36.5 | 17.2 | 33.8 µM
3 | COc1ccc(OC(=O)O[C@H]2[C@H](O[C@H]3[C@@H](O)COC(O[C@H]4C[C@H]5[C@@H]6CC=C7C[C@@H](O)CC[C@]7(C)[C@H]6CC[C@]5(C)[C@H]4[C@H](C)C(=O)CCC(C)C)[C@@H]3OC(C)=O)OC[C@@H](O)[C@@H]2O)cc1 (some centres not stated) | 0.0116 | 0.0559 µM | 4.91 | 21.4 µM | 0.682 | 19.7 | 0.961 | 18.1 | 0.0153 |  | 12.7 | 50.6 | < 0.01 | 0.0321 | 0.042 | 6.99 | 0.0857 | 6.56 | 0.172 | 0.52 µM
4 | CCCCNC(=O)NS(=O)(=O)c1ccc(N2N=C(c3ccc(C)cc3C)CC2c2ccc(N(C)C)cc2)cc1 (configuration not stated) | 3.9 | 25.9 µM | 2.25 | 5.1 µM | 3.72 | > 100 | 5.36 | 35.6 | 3.61 | > 100 | 3.68 | > 100 | 2.99 | 9.66 | 5.73 | > 100 | 4.59 | > 100 | 4.04 | > 100 µM
5 | COc1ccc(C2CC(=O)c3c(OC)cc(OC)cc3O2)cc1 (configuration not stated) | > 100 | > 100 µM | > 100 | > 100 µM | > 100 | > 100 | > 100 | > 100 | > 100 | > 100 | > 100 | > 100 | > 100 | > 100 | > 100 | > 100 | > 100 | > 100 | > 100 | > 100 µM
6 | CCCNC(=S)N/N=C(\C)c1ccccn1 | 0.435 | 4.83 µM | 0.523 | > 100 µM | 0.426 | > 100 | 0.0757 | > 100 | 0.0524 | 0.816 | 0.0667 | > 100 | 0.0268 | > 100 | 0.226 | > 51.1 | 1.81 | > 100 | 0.038 | 1.38 µM
7 | CCC1(O)C(=O)OCc2c1cc1n(c2=O)Cc2cc3c(N)cccc3nc2-1 (configuration not stated) |  | 1.39 µM |  | 2.58 µM |  | 20 |  | 14.2 |  | 0.014 |  | 7.21 | 0.0279 | 0.879 |  | 0.579 |  | 26.1 |  | 2.62 µM
8 | COc1ccc(-c2nc(-c3nc4ccc(C)cc4[nH]3)c3ccccn23)cc1 | 2.47 | 9.65 µM | 2.93 | 7.01 µM | 2.38 | 9.07 | 3.09 | > 100 | 2.17 | 7.99 | 2.05 | 6.15 | 1.47 | 3.93 | 2.8 | > 100 | 2.97 | > 100 | 2.41 | 6.17 µM
9 | C[C@]12CC[C@@H]3c4ccc(O)cc4C[C@@H](CCCCCCCCCS(=O)CCCC(F)(F)C(F)(F)F)[C@H]3[C@@H]1CC[C@@H]2O (some centres not stated) | > 100 | > 100 µM | > 100 | > 100 µM | > 100 | > 100 | > 100 | > 100 | > 100 | > 100 | > 100 | > 100 | 2.35 | > 100 | > 100 | > 100 | > 100 | > 100 | > 100 | > 100 µM
10 | COc1ccc(-n2cc(-c3cc(OC)c(OC)c(OC)c3)[nH]c2=S)cc1OC | > 100 | > 100 µM | 76.8 | > 100 µM | > 100 | > 100 | > 100 | > 100 | 7.04 | > 100 | > 100 | > 100 | > 100 | > 100 | > 100 | > 100 | > 100 | > 100 | > 100 | > 100 µM
11 | O=C(O)c1cc(N=Nc2ccc([As](=O)(O)O)cc2)ccc1O |  | > 100 µM |  | > 100 µM |  | > 100 |  | > 100 |  | > 100 |  | > 100 |  | > 100 |  | > 100 |  | > 100 |  | > 100 µM
12 | COc1cc(Cn2c(-c3ccccc3)cc3c2-c2oncc2CC3)cc(OC)c1OC | 0.271 | 2.06 µM | 2.21 | > 100 µM | 0.585 | 22.8 | 2.82 | > 100 | 0.976 | > 100 | 5.38 | > 100 | 5.43 | > 100 | 5.77 | > 100 | 1.93 | > 100 | 20.2 | > 100 µM
13 | Cn1cc(C2=C(c3cn(CCCN=C(N)N)c4ccccc34)C(=O)NC2=O)c2ccccc21 | > 25 | > 25 µM | > 25 | > 25 µM | > 25 | > 25 | > 25 | > 25 | > 25 | > 25 | > 25 | > 25 | > 25 | > 25 | > 25 | > 25 | > 25 | > 25 | > 25 | > 25 µM
14 | N#C/C(C(=S)Nc1ccccc1)=C1/NN=C2c3ccccc3C(=O)NN21 | 21.3 | 53.1 µM | 24.1 | > 100 µM | 16.1 | 58.4 | 29.5 | > 100 | 32.1 | > 100 | 32 | > 100 | 32.3 | > 100 | 35.3 | > 100 | 30.4 | > 100 | 39 | > 100 µM
15 | COc1ccc(/C(=N/Nc2ccc([N+](=O)[O-])cc2)Sc2cc(Cl)c(C)cc2S(N)(=O)=O)cc1 | 0.107 | 2.68 µM | 4.29 | 8.75 µM | 3.22 | 9.96 | 3.04 | 8.21 | 5.02 | 16.5 | 7.28 | > 57 | 5.11 | 13.6 | 6.66 | 19.9 | 7.06 | 20.3 | 13 | 26.4 µM
16 | NC(N)=NC(N)=Nc1cc2ccccc2c2ccccc12 | 1.39 | 10.1 µM | 6.89 | 24.2 µM | 12.3 | 27.2 | 3.52 | 16 | 2.91 | 13.7 | 5.15 | 20.6 | 4.49 | 26 | 9.61 | 24.1 | 7.69 | 21.6 | 10.5 | 22.9 µM
17 | CC12CCCC(CC(=O)c3[nH]c4ccccc4c31)C2 (configuration not stated) | 0.483 | 4 µM | 1.79 | 24.6 µM | 0.641 | > 54 | 3.26 | 43.1 | 0.492 | 40.9 | 2.01 | 30.7 | 0.656 | 12.7 | 1.94 | > 65.2 | 1.48 | > 100 | 15.2 | > 100 µM
18 | CN1C(NC(=O)c2ccc(Cl)nc2)=NS(=O)(=O)c2cc(Cl)ccc21 | > 100 | > 100 µM | > 100 | > 100 µM | > 100 | > 100 | > 100 | > 100 | > 100 | > 100 | > 100 | > 100 | > 100 | > 100 | > 100 | > 100 | > 100 | > 100 | > 100 | > 100 µM
19 | Cc1cc(C2CCCCC2)n(O)c(=O)c1 | 7 | > 100 µM and 46.7 µM | 2.94 | > 100 µM and 35.5 µM | 2.53 | > 100 | 2.16 | > 100 |  | > 100 | 1.92 | > 100 |  | 46.8 | 1.27 | > 100 | 2.37 | > 100 | 2.6 | 21.9 µM and 8.45 µM
20 | CC(=O)[O][Hg][c]1c(C)c(C)c(C)c(C)c1C | 2.68 | 5.4 µM | 1.53 | 3.2 µM | 4.06 | 15.3 | 0.552 | 1.31 | 0.223 | 1.11 | 1.93 | 3.88 | 1.8 | 6.22 | 0.549 | 2.11 | 1.48 | 2.89 | 1.73 | 3.45 µM
21 | CN(C)C(=S)SN(C)C(=O)Nc1ccccc1 |  | > 33.8 µM |  | > 62.9 µM |  | 53.8 |  | > 100 |  | 85.8 |  | > 93.7 |  | > 100 |  | 99.9 |  | > 100 |  | > 63.1 µM
22 | COc1cc2c(/C=C3/C(=O)Nc4cccc(Cl)c43)c(Cl)n(Cc3ccccc3)c2cc1C | 0.528 | 9.03 µM | 3.1 | 8.99 µM | 2.46 | 17.9 | 3.38 | 24.4 | 3.7 | > 100 | 5.21 | > 71.9 | 4.21 | > 23.6 | 13.1 | > 71.5 | 9.07 | > 100 | 10.4 | > 78.8 µM
23 | Cc1[nH]c(N=Nc2ccccc2)nc1N=Nc1ccccc1 | 5.1 | 25.6 µM | 4.2 | 29.6 µM | 3.98 | > 93.2 | 5.25 | > 45.4 | 2.32 | > 41.7 | 3.2 | 53.1 | 1.17 | 8.38 | 2.45 | 11.5 | 3.63 | > 87.7 | 2.26 | 5.89 µM
24 | COc1ccc(-c2cc3c(nn2)-c2ccccc2C3=O)cc1 | > 100 | > 100 µM | > 100 | > 100 µM | 47.7 | > 100 | 70 | > 100 | 32.8 | > 100 | > 100 | > 100 | > 100 | > 100 | > 100 | > 100 | > 100 | > 100 | > 100 | > 100 µM
25 | COc1ccc2cc(C(=O)/C=C/c3cccc(OC)c3OC)ccc2c1 | 13.3 | 26.6 µM | 14.2 | 27.2 µM | 13 | 33.1 | 14.8 | 38.5 | 3.12 | 15.6 | 8.88 | 33.6 | 6.86 | > 100 | 24.2 | 50.8 | 15.6 | 33.5 | 15 | 29.8 µM

— PubChem BioAssay (NCI)
